Like-named read-outs stand apart in the source and are kept apart here.
Assay: long term formulation trials of natural stability and dispersion aids
Format: physicochemical
From the text: Additionally, popular formularies like lecithin and glycerin were trialed. […] Thus, Glycerin alone was not useful to the invention disclosed herein which requires higher loading rates to achieve improved efficacy and a simplified industrially scalable process.

| Compound | stability of formulation in trials (used as stabilizing/dispersion aid in nano and micro-emulsion formulations, long term trials) | stability of formulation in trials |
| --- | --- | --- |
| OCC(O)CO [Glycerin] | very low stability unless used in very small quantities |  |
| pectin |  | high microbial activity |

Source: patent US20250177299A1, “MOLECULAR COMPLEXING METHOD, FORMULATION AND MANUFACTURING FOR ENHANCED NUTRIENT DELIVERY” (Ingredient Fusion, LLC, priority 2021, published 2025)
